{"source": "patent US20250082600A1", "about": "“TREATING HAEMATOLOGICAL MALIGNANCIES BY MEANS OF SATRAPLATIN” (PHARMA& SCHWEIZ GMBH, priority 2022, published 2025)", "key": {"[1]": {"system": "hematological malignancies (n=44) cell lines", "experiment": "CTG cell viability assay, hematological malignancy cell lines", "format": "cell-based, human", "protocol": "(§1) Cell lines and reagents. All cell lines were cultured in appropriate media supplemented with 10-15% fetal bovine serum (Cat #FND500, ExCell Bio, China) at a temperature of 37° C., 5% CO2 and 95% humidity. Cell viability was measured using the CTG Luminescent Cell Viability Assay (Promega, Madison, WI, USA) by standard procedures as described below. Satraplatin was purchased from MedChemExpress (Shanghai, PRC) and cisplatin from Qilu Pharm (Jinan, Shandong, PRC), respectively. 1 mM stock solutions of both drugs were established for storage at −20° C. as previously described (5).\n(§2) Determination of the half maximal inhibition concentration (IC50). Cells were harvested during the logarithmic growth period and cell numbers counted using Count-star (Inno-Alliance Biotech, USA). Cell density was adjusted to 4.44×10^4 cells/mL with the respective culture medium. Then, 90 μL cell suspensions were added in triplicate to a 96-well plate with the final cell density of 4×10^3 cells/well. […] The test plate was incubated for 72 h in the humidified incubator at 37° C. with 5% CO2, and then evaluated using CTG cell viability assay (Promega). For that purpose, plates were equilibrated at room temperature for approximately 30 min. Then, 50 μL CTG reagent was added to each well. […] Luminescence was recorded using EnVision Multi Label Reader (Perkin Elmer, Richmond, CA, USA).\n(§3) Data Analysis. The data were analyzed and visualized using GraphPad Prism 5.0 (GraphPad Software, San Diego, CA, USA) and Think-Cell 11 (Think-Cell Software, Berlin, Germany). […] The formula for calculating the cell survival rate was: Cell survival (%) at Cx=(Cx−M)/(N−M)×100%, Cx being the luminescence signal of cells cultured with any concentration of the test compound, M being the luminescence signal of the blank control (with no cells) and N being the vehicle control with culture medium containing 0.25% (v/v) dimethyl sulfoxide. The absolute IC50 was calculated according to the dose-response curve generated by GraphPad Prism 5.0. […]"}, "CTCL cell line HUT78": {"system": "CTCL cell line HUT78", "experiment": "CTG cell viability assay, HUT78", "format": "cell-based, human", "protocol": "as §1\n(§4) Determination of the half maximal inhibition concentration (IC50). Cells were harvested during the logarithmic growth period and cell numbers counted using Count-star (Inno-Alliance Biotech, USA). Cell density was adjusted to 4.44×10^4 cells/mL with the respective culture medium. […] The test plate was incubated for 72 h in the humidified incubator at 37° C. with 5% CO2, and then evaluated using CTG cell viability assay (Promega). […] Luminescence was recorded using EnVision Multi Label Reader (Perkin Elmer, Richmond, CA, USA).\n(§5) Data Analysis. The data were analyzed and visualized using GraphPad Prism 5.0 (GraphPad Software, San Diego, CA, USA) and Think-Cell 11 (Think-Cell Software, Berlin, Germany). […] The absolute IC50 was calculated according to the dose-response curve generated by GraphPad Prism 5.0. […]"}, "OCI-LY3 cell line": {"system": "OCI-LY3 cell line", "experiment": "CTG cell viability assay, OCI-LY3", "format": "cell-based, human", "protocol": "as §1, §4, §5"}, "OCI-LY7 cells": {"system": "OCI-LY7 cells", "experiment": "CTG cell viability assay, OCI-LY7", "format": "cell-based, human", "protocol": "as §1, §4, §5"}, "DLBCL cell lines": {"system": "DLBCL cell lines", "experiment": "CTG cell viability assay, DLBCL cell lines", "format": "cell-based, human", "settings": "DLBCL and its respective cell lines", "protocol": "as §1, §4, §5"}, "[2]": {"system": "lymphoma cell lines harboring gene copy number deletions in the 9p21 locus", "experiment": "Satraplatin sensitivity versus DNA copy number deletion", "format": "cell-based, human", "settings": "MTAP/CDKN2A/CDKN2B/DMRTA1 deletions", "protocol": "as §2\nas §3, with “sulfoxide.” for “sulfoxide. The absolute IC50 was calculated according to the dose-response curve generated by GraphPad Prism 5.0.”"}, "[3]": {"system": "hormone refractory prostate cancer patients (HRPC)", "settings": "monotherapy; cited from earlier work"}, "BCL2 expression": {"system": "BCL2 expression", "settings": "cited from earlier work"}, "[4]": {"settings": "cited from earlier work"}, "66 cancer cell lines": {"system": "66 cancer cell lines", "experiment": "CTG cell viability assay, 66 cancer cell lines (AUC)", "format": "cell-based, human", "settings": "for activity (AUC) in hematological malignancies compared to solid organ cancers: ANOVA p-value=2.3e-08", "protocol": "as §1, §2, §3"}, "[5]": {"system": "MTAP deficient cell lines", "experiment": "Satraplatin IC50 plotted against MTAP status", "format": "cell-based, human", "protocol": "as §1, §4, §5"}}, "data": [{"compound": "CC(=O)[O][Pt]([NH2])([Cl])([Cl])([NH]C1CCCCC1)[O]C(C)=O", "note": "[satraplatin, bis (acetato) ammine dichloro (cyclohexylamine) platinum (IV)]", "values": [{"measurement": "activity grouped by histology", "setting": "[1]; DLBCL, T-cell lymphoma, MCL, MM and Burkitt lymphoma cell lines", "result": "high activity"}, {"measurement": "IC50 values", "setting": "[1]; group of hematologic malignancies, 72 h, CTG", "result": "low to sub micromolar levels"}, {"measurement": "activity compared with standard cisplatin", "setting": "[1]; within the group of hematologic malignancies, p-value=0.009, FIG. 2", "result": "significantly more active"}, {"measurement": "IC50", "setting": "CTCL cell line HUT78", "result": "low-micromolar"}, {"measurement": "cell killing", "setting": "OCI-LY3 cell line", "result": "killed very efficiently"}, {"measurement": "activity compared with cisplatin", "setting": "OCI-LY3 cell line; p-value of 0.0006", "result": "significantly more active than cisplatin"}, {"measurement": "killing compared to cisplatin", "setting": "OCI-LY7 cells", "result": "significantly superior"}, {"measurement": "IC50 values", "setting": "DLBCL cell lines", "result": "low micromolar or even sub-molar"}, {"measurement": "activity on cell lines with 9p21 copy number deletions", "setting": "[2]", "result": "more active"}, {"measurement": "objective response rate", "setting": "[3]", "result": "up to 31%"}, {"measurement": "effectiveness in contrast to oxaliplatin", "setting": "BCL2 expression", "result": "significantly more effective"}, {"measurement": "reduction of BCL2 expression", "setting": "BCL2 expression; independently of P53 mutational status", "result": "up to 13 fold"}, {"measurement": "access to the cerebrospinal fluid", "setting": "[4]", "result": "access the cerebrospinal fluid at sufficient dose levels"}, {"measurement": "activity (AUC) in hematological malignancies compared to solid organ cancers", "setting": "66 cancer cell lines", "result": "significant higher activity in haematopoietic & lymphoid malignancies"}, {"measurement": "activity (AUC) in hematological malignancies compared to solid organ cancers", "setting": "66 cancer cell lines; listed as Satraplatin", "result": "significantly more active in hematological malignancies"}, {"measurement": "median AUC value across all tested cell lines", "setting": "66 cancer cell lines; area under dose-response curve, 72 h, CTG, FIG. 1", "result": 2.35}, {"measurement": "activity in MTAP deleted hematopoietic cell lines", "setting": "[5]", "result": "high activity"}]}]}
